Experimental data from publication PMC5647378, “Structural and Mechanistic Analysis of Drosophila melanogaster Agmatine N-Acetyltransferase, an Enzyme that Catalyzes the Formation of N-Acetylagmatine” (Scientific Reports, 2017).
Changes are numbered by the printed parent chain. Where “and” joins values, the source holds several entries; their conditions need not be identical. Identical values can stand only once. Like-named read-outs stand apart in the source and are kept apart here. Each block holds one molecule with its values, some of them ahead of it.

Assays:
AgmNAT E34A mutant = molecular target: T1, AgmNAT E34A mutant (Drosophila melanogaster, UniProt Q9W469, E34A); test: Steady-state kinetics of AgmNAT site-directed mutant E34A; format: biochemical; details: for (kcat/Km)app–mutant/(kcat/Km)app–wild–type×100: E34A
T1 sequence (Q9W469 1-216 E34A): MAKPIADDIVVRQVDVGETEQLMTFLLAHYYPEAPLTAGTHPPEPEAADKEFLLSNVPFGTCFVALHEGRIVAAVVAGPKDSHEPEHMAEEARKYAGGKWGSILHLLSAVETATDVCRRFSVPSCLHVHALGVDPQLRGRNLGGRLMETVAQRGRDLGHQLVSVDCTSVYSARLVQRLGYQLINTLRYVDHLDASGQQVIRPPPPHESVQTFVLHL
Method: (§1) Site-directed mutants of AgmNAT were constructed by the overlap extension method. Using the primers shown in Table S1, each mutant was amplified using pfuUltra High-Fidelity DNA polymerase with the following PCR conditions: initial denaturing step of 95 °C for 2 min, then 30 cycles of 95 °C for 30 s; 60 °C annealing temperature for 30 s; 72 °C extension step for 1 min; then a final extension step of 72 °C for 10 min. Following the amplification of the AgmNAT site-directed mutant, the sub-cloning, expression, and purification procedures are the same as discussed for the wild-type enzyme.
(§2) Steady-state kinetic constants for AgmNAT were determined by measuring the rate of coenzyme A release using Ellman’s reagent (DTNB) at 412 nm (molar absorptivity = 13,600 M^−1 cm^−1)[15]–[17]. […] Initial velocities were measured using a Cary 300 Bio UV-Visible spectrophotometer at 22 °C. Acyl-CoA kinetic constants were evaluated by holding the concentration of agmatine at a constant saturating concentration (5 mM). […] The apparent kinetic constants were determined by fitting the resulting data to equation 1 using SigmaPlot 12.0, where vo is the initial velocity, Vmax,app is the apparent maximal velocity, [S] is the substrate concentration, and Km,app is the apparent Michaelis constant. Each assay was performed in triplicate and the uncertainty for the kcat,app and (kcat/Km)app values were calculated using equation 2, where σ is the standard error.1 vo=Vmax,app[S]/Km,app+[S] 2 σ(x/y)=x/y(σx/x)^2+(σy/y)^2

AgmNAT S171A mutant = molecular target: T2, AgmNAT S171A mutant (Drosophila melanogaster, UniProt Q9W469, S171A); test: Steady-state kinetics of AgmNAT site-directed mutant S171A; format: biochemical; details: for (kcat/Km)app–mutant/(kcat/Km)app–wild–type×100: S171A
T2 sequence (Q9W469 1-216 S171A): T1 sequence (Q9W469 1-216 E34A) with A34E, S171A
Method: as §1, §2

AgmNAT P35A mutant = molecular target: T3, AgmNAT P35A mutant (Drosophila melanogaster, UniProt Q9W469, P35A); test: Steady-state kinetics of AgmNAT site-directed mutant P35A; format: biochemical
T3 sequence (Q9W469 1-216 P35A): T1 sequence (Q9W469 1-216 E34A) with A34E, P35A
Method: as §1
as §2, with “Each assay was performed in triplicate and the uncertainty for the kcat,app and (kcat/Km)app values were calculated using equation 2, where σ is the standard error.1 vo=Vmax,app[S]/Km,app+[S] 2 σ(x/y)=x/y(σx/x)^2+(σy/y)^2” left out

[1] = molecular target: T4, Drosophila melanogaster AgmNAT (CG15766), wild-type (Drosophila melanogaster, UniProt Q9W469); test: AgmNAT steady-state kinetics, coenzyme A release with Ellman's reagent (DTNB); format: biochemical
T4 sequence (Q9W469 entry or part of it): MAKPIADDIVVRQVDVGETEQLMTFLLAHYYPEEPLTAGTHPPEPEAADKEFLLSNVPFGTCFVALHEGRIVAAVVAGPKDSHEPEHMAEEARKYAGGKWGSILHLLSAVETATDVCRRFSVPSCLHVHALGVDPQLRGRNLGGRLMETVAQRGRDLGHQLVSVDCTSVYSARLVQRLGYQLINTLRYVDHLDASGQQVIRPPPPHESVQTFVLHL
Method: as §2

AgmNAT H206A mutant = molecular target: T5, AgmNAT H206A mutant (Drosophila melanogaster, UniProt Q9W469, H206A); test: Steady-state kinetics of AgmNAT site-directed mutant H206A; format: biochemical; details: for increase of Km,app versus wild-type: H206A mutant; for (kcat/Km)app–mutant/(kcat/Km)app–wild–type×100: H206A
T5 sequence (Q9W469 1-216 H206A): T1 sequence (Q9W469 1-216 E34A) with A34E, H206A
Method: as §1, §2

[2] = molecular target: T4, Drosophila melanogaster AgmNAT (CG15766), wild-type; test: AgmNAT dead-end and product inhibition analysis; format: biochemical; details: inhibitor at 10 mM
[3] = molecular target: T4, Drosophila melanogaster AgmNAT (CG15766), wild-type; test: AgmNAT dead-end and product inhibition analysis; format: biochemical
Method: Initial velocities were determined by varying the concentration of one substrate, while holding the other substrate at a fixed concentration. […] The resulting initial velocity data was fit to equation 3 for an ordered Bi-Bi mechanism and equation 4 for a ping pong mechanism using IGOR Pro 6.34 A, where vo is the initial velocity, Vmax is the maximal velocity, Kia is the dissociation constant for substrate A, Kb is the Michaelis constant for substrate B, Ka is the Michaelis constant for substrate A, [A] is the concentration of substrate A, and [B] is the concentration of substrate B.3 vo=Vmax[A][B]/KiaKb+Ka[B]+Kb[A]+[A][B] 4 vo=Vmax[A][B]/Ka[B]+Kb[A]+[A][B]
Inhibition experiments by either substrate analogs or N-acetylagamatine were used to discriminate between an ordered, random sequential, or ping pong kinetic mechanism. […] Initial velocity patterns were generated by varying the concentration of one substrate, holding the other substrate concentration at its apparent Km, and changing the concentration of inhibitor for each data set in triplicate. The resulting data was fit to equations 5–7, for competitive, noncompetitive, and uncompetitive inhibition respectively using SigmaPlot 12.0. For […], vo is the initial velocity, Vmax,app is the apparent maximal velocity, Km,app is the apparent Michaelis constant, [S] is the substrate concentration, [I] is the inhibitor concentration, and Ki is the inhibition constant.5 vo=Vmax,app[S]/Km,app(1+[I]/Ki)+[S] 6 vo=Vmax,app[S]/Km,app(1+[I]/Ki)+[S](1+[I]/Ki) 7 vo=Vmax,app[S]/Km,app+[S](1+[I]/Ki)

Glu34 = Glu34 (UniProt position 34, HYYPEEPLTAG); test: kinetics; details: 22 °C; MES (pH 6.5 and 7.0), Tris (pH 7.0-9.0), AmeP (pH 9.0 and 9.5). Concentrations for the pH series not stated (standard assay is 300 mM Tris with 150 µM DTNB).; Steady-state turnover; acetyl-CoA varied, agmatine as co-substrate (5 mM saturating in the standard assay); wild-type enzyme, triplicate

Molecule: NCCCCN=C(N)N [Agmatine, (4-aminobutyl)guanidine]
- increase of Km,app versus wildtype (AgmNAT E34A mutant; E34A mutant, agmatine): 20 fold
- (kcat/Km)app–mutant/(kcat/Km)app–wild–type×100 (AgmNAT E34A mutant; agmatine varied): 0.0038%
- change (increase) of Km,app versus wildtype (AgmNAT S171A mutant; S171A mutant, agmatine): 3- to 4 fold
- (kcat/Km)app–mutant/(kcat/Km)app–wild–type×100 (AgmNAT S171A mutant; agmatine varied): 2.7%
- (kcat/Km)app–mutant/(kcat/Km)app–wild–type×100 (AgmNAT P35A mutant; agmatine varied): 3.2%
- (kcat/Km)app–mutant/(kcat/Km)app–wild–type×100 ([1]; Wild-type, agmatine varied): 100%
- increase of Km,app versus wild-type (AgmNAT H206A mutant; agmatine): 1.4 fold
- (kcat/Km)app–mutant/(kcat/Km)app–wild–type×100 (AgmNAT H206A mutant; agmatine varied): 4.7%

- acceptance as amine substrate ([1]; amine substrate screen with acetyl-CoA): not AgmNAT substrates
- decrease of the rate of N-acetylagmatine formation from acetyl-CoA and agmatine [2]: ~ 50%
- Ki ([3]; varied substrate acetyl-CoA, constant agmatine (0.3 mM), listed as arginine methyl ester, read-out: Ki,i): ≥ 1000 µM
- Ki ([3]; varied substrate acetyl-CoA, constant agmatine (0.3 mM), read-out: Ki,i): 2900 ± 100 µM
- Ki ([3]; varied substrate agmatine, constant acetyl-CoA (0.1 mM; 104 µM), listed as arginine methyl ester, read-out: Ki,s): ≥ 1000 µM
- Ki ([3]; varied substrate agmatine, constant acetyl-CoA (0.1 mM; 104 µM), read-out: Ki,s): 1500 ± 100 µM
- type of inhibition plot (in words) ([3]; versus acetyl-CoA): uncompetitive
- type of inhibition plot (in words) ([3]; versus agmatine): competitive
Molecule: COC(=O)[C@@H](N)CCCN=C(N)N [Arginine methyl ester, L-arginine methyl ester]

Molecule: CC(=O)SCCNC(=O)CCNC(=O)[C@H](O)C(C)(C)COP(=O)(O)OP(=O)(O)OC[C@H]1O[C@@H](n2cnc3c(N)ncnc32)[C@H](O)[C@@H]1OP(=O)(O)O [Acetyl-CoA]
- decrease of Km,app versus wildtype (AgmNAT E34A mutant; E34A mutant, acetyl-CoA): 6 fold
- (kcat/Km)app–mutant/(kcat/Km)app–wild–type×100 (AgmNAT E34A mutant; acetyl-CoA varied): 0.27%
- change (decrease) of Km,app versus wildtype (AgmNAT S171A mutant; S171A mutant, acetyl-CoA): 3- to 4 fold
- (kcat/Km)app–mutant/(kcat/Km)app–wild–type×100 (AgmNAT S171A mutant; acetyl-CoA varied): 34%
- (kcat/Km)app–mutant/(kcat/Km)app–wild–type×100 (AgmNAT P35A mutant; acetyl-CoA varied): 0.86%
- (kcat/Km)app–mutant/(kcat/Km)app–wild–type×100 ([1]; Wild-type, acetyl-CoA varied): 100%
- kcat,app ([1]; Wild-type, acetyl-CoA varied, saturating agmatine, pH 8.5): 23 ± 1 s⁻¹
- kcat,app ([1]; acyl-CoA varied, 5 mM agmatine, 300 mM Tris-HCl pH 8.5, 150 µM DTNB): 23 ± 1 s⁻¹
- Km ([1]; acyl-CoA varied, 5 mM agmatine, 300 mM Tris-HCl pH 8.5, 150 µM DTNB, read-out: Km,app): 100 µM
- increase of Km,app versus wild-type (AgmNAT H206A mutant; acetyl-CoA): 2.3 fold
- (kcat/Km)app–mutant/(kcat/Km)app–wild–type×100 (AgmNAT H206A mutant; acetyl-CoA varied): 2.3%

Molecule: Agmatine N-acetyltransferase (AgmNAT; formerly arylalkylamine N-acetyltransferase-like 8, AANATL8) (Drosophila melanogaster)
- pKa (Glu34): 7.7 ± 0.1 and 7.3 ± 0.2 and ~7.5
